Source: ChEMBL document CHEMBL1154508, “Discovery of GSK345931A: An EP(1) receptor antagonist with efficacy in preclinical models of inflammatory pain” (Bioorg Med Chem Lett, 2009)

Columns and labels:
[1] = Ratio of drug level in brain to blood in complete Freund's adjuvant-induced rat inflammatory pain model 3 mg/kg, po after 1 hr; format: ADME, organism-based; set-up: dose 3 mg/kg, route oral
[2] = Drug level in brain of sub-chronic rat joint pain efficacy model treatment group at 5 mg/kg bid measured on day 5 after 1 hr post dose; format: ADME, organism-based; set-up: dose 5 mg/kg; conditions: read-out: Drug uptake
[3] = Ratio of drug level in brain to blood of sub-chronic rat joint pain efficacy model treatment group at 20 mg/kg bid measured on day 5 after 1 hr post dose; format: ADME, organism-based; set-up: dose 20 mg/kg
[4] = Drug level in brain of complete Freund's adjuvant-induced rat inflammatory pain model at 2 mg/kg, po after 1 hr; format: ADME, organism-based; set-up: dose 2 mg/kg, route oral; conditions: read-out: Drug uptake
[5] = Drug level in blood of complete Freund's adjuvant-induced rat inflammatory pain model at 3 mg/kg, po after 1 hr; format: ADME, organism-based; set-up: dose 3 mg/kg, route oral; conditions: read-out: Drug uptake
[6] = Drug level in mouse brain at 3 mg/kg, po after 0.5 hrs; format: ADME, organism-based; set-up: dose 3 mg/kg, route oral; conditions: read-out: Drug uptake
[7] = target: T1, Prostaglandin E2 receptor EP3 subtype (Homo sapiens, UniProt P43115); assay: Activity at EP3 receptor by FLIPR method
T1 sequence (P43115 whole entry): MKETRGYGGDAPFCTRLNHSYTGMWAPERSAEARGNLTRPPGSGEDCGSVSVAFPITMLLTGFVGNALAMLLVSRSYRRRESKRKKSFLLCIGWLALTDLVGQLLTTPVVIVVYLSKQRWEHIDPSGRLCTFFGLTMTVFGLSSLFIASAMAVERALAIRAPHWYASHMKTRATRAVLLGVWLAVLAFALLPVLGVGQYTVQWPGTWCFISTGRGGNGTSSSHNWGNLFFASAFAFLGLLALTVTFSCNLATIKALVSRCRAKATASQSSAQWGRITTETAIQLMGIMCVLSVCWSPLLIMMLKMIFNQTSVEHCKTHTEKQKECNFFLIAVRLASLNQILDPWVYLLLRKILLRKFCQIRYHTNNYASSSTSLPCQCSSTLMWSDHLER

[8] = target: T2, Prostaglandin E2 receptor EP1 subtype (Homo sapiens, UniProt P34995); assay: Antagonist activity at EP1 receptor by FLIPR calcium mobilization assay
T2 sequence (P34995 whole entry): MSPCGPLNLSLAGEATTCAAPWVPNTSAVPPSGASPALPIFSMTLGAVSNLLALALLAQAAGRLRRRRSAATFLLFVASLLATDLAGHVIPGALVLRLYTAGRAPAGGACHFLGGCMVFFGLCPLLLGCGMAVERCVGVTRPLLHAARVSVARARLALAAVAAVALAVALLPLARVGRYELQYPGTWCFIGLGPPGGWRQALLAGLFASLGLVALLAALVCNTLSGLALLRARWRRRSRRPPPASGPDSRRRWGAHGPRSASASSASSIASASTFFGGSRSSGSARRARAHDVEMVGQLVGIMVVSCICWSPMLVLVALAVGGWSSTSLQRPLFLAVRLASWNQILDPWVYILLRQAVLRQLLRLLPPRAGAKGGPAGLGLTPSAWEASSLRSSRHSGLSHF

[9] = Half life in cynomolgus monkey at 1 mg/kg, iv; format: ADME, organism-based, Macaca fascicularis; set-up: dose 1 mg/kg, route intravenous; conditions: in vivo
[10] = Aqueous solubility in water after 2 hrs; format: physicochemical
[11] = target: T3, Peroxisome proliferator-activated receptor delta (Homo sapiens, UniProt Q03181); assay: Binding affinity PPARdelta
T3 sequence (Q03181 whole entry): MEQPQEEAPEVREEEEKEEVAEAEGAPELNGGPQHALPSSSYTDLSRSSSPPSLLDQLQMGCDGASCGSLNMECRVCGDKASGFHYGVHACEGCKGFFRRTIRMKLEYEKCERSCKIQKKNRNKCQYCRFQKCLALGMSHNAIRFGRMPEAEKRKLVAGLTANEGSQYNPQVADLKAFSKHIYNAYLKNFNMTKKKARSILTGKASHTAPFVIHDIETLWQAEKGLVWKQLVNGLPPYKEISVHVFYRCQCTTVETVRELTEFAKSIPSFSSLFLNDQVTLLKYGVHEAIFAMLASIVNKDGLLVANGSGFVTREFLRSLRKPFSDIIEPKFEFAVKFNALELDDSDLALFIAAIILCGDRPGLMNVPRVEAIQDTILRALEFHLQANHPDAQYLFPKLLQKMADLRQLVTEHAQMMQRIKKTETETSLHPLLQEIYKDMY

[12] = Oral bioavailability in rat at 3 mg/kg; format: ADME, organism-based; conditions: in vivo
Thromboxane A2 receptor [13] = target: T4, Thromboxane A2 receptor (Homo sapiens, UniProt P21731); assay: Activity at TP receptor by FLIPR method
T4 sequence (P21731 whole entry): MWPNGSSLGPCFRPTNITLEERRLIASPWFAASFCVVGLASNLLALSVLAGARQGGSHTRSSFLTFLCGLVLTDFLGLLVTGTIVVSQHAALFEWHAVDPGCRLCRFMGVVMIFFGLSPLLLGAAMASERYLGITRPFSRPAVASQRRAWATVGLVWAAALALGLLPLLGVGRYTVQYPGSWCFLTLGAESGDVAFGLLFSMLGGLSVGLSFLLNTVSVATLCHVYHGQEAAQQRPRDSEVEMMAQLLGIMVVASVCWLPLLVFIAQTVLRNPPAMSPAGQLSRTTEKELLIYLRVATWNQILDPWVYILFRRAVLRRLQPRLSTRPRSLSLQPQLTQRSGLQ

Thromboxane A2 receptor [14] = target: T4, Thromboxane A2 receptor; assay: Binding affinity to TP receptor
[15] = Drug level in brain of sub-chronic rat joint pain efficacy model satellite animal group at 20 mg/kg bid measured on day 5 after 1 hr post dose; format: ADME, organism-based; set-up: dose 20 mg/kg; conditions: read-out: Drug uptake
[16] = Solubility in simulated gastric fluid after 24 hrs; format: physicochemical
[17] = Blood clearance in rat at 1 mg/kg, iv; format: ADME, organism-based; set-up: dose 1 mg/kg, route intravenous
[18] = Ratio of drug level in brain to blood in complete Freund's adjuvant-induced rat inflammatory pain model at 10 mg/kg, po after 1 hr; format: ADME, organism-based; set-up: dose 10 mg/kg, route oral
Liver microsomes = assay: Metabolic stability assessed as intrinsic clearance per gram of human liver microsomes; format: ADME, Microsome
[19] = Solubility in fasted state simulated intestinal fluid after 24 hrs; format: physicochemical
Rattus norvegicus = organism: Rattus norvegicus; assay: Antiinflammatory activity against complete Freund's adjuvant-induced hypersensitivity in rat inflammatory pain model; format: functional
[20] = Ratio of drug level in brain to blood of sub-chronic rat joint pain efficacy model satellite animal group at 20 mg/kg bid measured on day 5; format: ADME, organism-based; set-up: dose 20 mg/kg
[21] = Drug level in blood of complete Freund's adjuvant-induced rat inflammatory pain model at 2 mg/kg, po after 1 hr; format: ADME, organism-based; set-up: dose 2 mg/kg, route oral; conditions: read-out: Drug uptake
[22] = target: T2, Prostaglandin E2 receptor EP1 subtype; assay: Binding affinity to human EP1 receptor

With `CC(C)COc1ccc(Cl)cc1-c1ccccc1-c1cccc(C(=O)[O-])n1.[Na+]` the Kp at 1 h [1] was 0.72, the concentration at 1 h [2] was 1070 nM and the Kp at 1 h [3] was 0.45. The concentration at 1 h [4] was 645 nM, the concentration at 1 h [5] was 3330 nM and the concentration at 0.5 h [6] was 277 nM. The Ki [7] was 2000 nM, the Ki [8] was 2.51 nM and the half-life [9] was 48 min. It also gave a solubility at 2 h [10] of 499 µg/mL, a Ki [11] of over 20000 nM and a bioavailability [12] of 95%. It also gave an IC50 (Thromboxane A2 receptor [13]) of 1580 nM, a Ki (Thromboxane A2 receptor [14]) of 316 nM and a concentration at 1 h [15] of 3630 nM. For the same compound, the solubility at 24 h [16] was 11 µg/mL, the clearance [17] was 11 mL/min/kg and the Kp at 1 h [18] was 0.48. For the same compound, the CL (Liver microsomes) was 1.9 mL/min/g, the solubility at 24 h [19] was 1050 µg/mL and the ED50 (Rattus norvegicus) was 1.6 mg/kg. It also gave a Kp at 5 day [20] of 0.5, a concentration at 1 h [21] of 2140 nM and an IC50 [22] of 16 nM.
